Data published in patent US20240293391A1, “ISOQUINOLINE AND PYRIDINE BASED CXCR4 ANTAGONISTS” (Katholieke Universiteit Leuven, priority 2021, published 2024).

Tests used:
CXCR4 [1] = target: T1, CXCR4 (Homo sapiens, UniProt P61073); experiment: CXCR4 binding assay (competition with CXCL12^AF647 on Jurkat cells, flow cytometry); design: endogenous in cells; host or cells: Jurkat cells
Experimental: (§1) First, the ability of the compounds to compete with fluorescently labeled CXCL12 (CXCL12^AF647) for binding at CXCR4 was determined. […] Finally, given the role of CXCR4 as a major coreceptor for HIV entry, the antiviral activity of the compounds against the X4-tropic wild type HIV-1 NL4-3 strain and the HIV-2 ROD strain was determined in MT-4 cells. In parallel, the cytotoxicity of the compounds for uninfected MT-4 cells was assessed.
The CXCL12^AF647 binding assay with Jurkat cells has been described previously [Schoofs et al. JoVE 2018, 133, 1-8]. Briefly, Jurkat cells were resuspended in assay buffer [Hank's Balanced Salt Solution (HBSS, Thermo Fisher Scientific), 20 mM HEPES buffer, 0.2% bovine serum albumin (Sigma-Aldrich), pH 7.4] at 3×10^5 cells per sample and then treated with various concentrations of the compound at room temperature for 15 minutes. Afterwards, the cells were incubated with 2.9 nM CXCL12^AF647 (in assay buffer) at room temperature for 30 minutes in the dark. Cells were fixed in 1% paraformaldehyde in DPBS and specific CXCL12^AF647 binding [i.e. mean fluorescence intensity (MFI)] was quantified by flow cytometry (FACSArray™; Becton Dickinson). Data were analyzed with FlowJo® Software. The 50% inhibitory concentration (IC50) was calculated for each compound relative to the negative (i.e. autofluorescence of untreated and unlabeled cells) and positive (i.e. untreated cells exposed to CXCL12^AF647 only) control.

[2] = Cytotoxicity for mock-infected (uninfected) MT-4 cells; type: cell-based; conditions: human, mock-infected (uninfected) MT-4 cells, Concentration required to reduce the viability of mock-infected MT4 cells by 50%
Experimental: (§2) First, the ability of the compounds to compete with fluorescently labeled CXCL12 (CXCL12^AF647) for binding at CXCR4 was determined. Secondly, since binding of CXCL12 to CXCR4 results into a transient increase of cytosolic calcium levels, the inhibition of this CXCL12-induced calcium mobilization by the various compounds was also investigated. […] In parallel, the cytotoxicity of the compounds for uninfected MT-4 cells was assessed. […] The anti-HIV assays in MT-4 cells been described in detail before [Hout et al. cited above; […] et al. AIDS 2004, 18, 2115-2125]. […] After five days, the cytopathic effect was checked microscopically and cell viability (i.e. viral replication) was evaluated using the MTS/PES-based CellTiter 96 Aqueous One Solution Cell Proliferation assay (Promega, Fitchburg, WI, USA). Absorbance was recorded using the VersaMax ELISATM microplate reader (Molecular Devices) and analyzed with the Softmax Pro® software (Molecular Devices).

CXCR4 [3] = target: T1, CXCR4; experiment: CXCR4 calcium mobilization assay (CXCL12-induced, U87.CD4.CXCR4 cells, FLIPR); type: cell-based; conditions: Concentration needed to inhibit CXCL12-induced calcium signaling by 50%
Experimental: as §1
The calcium mobilization assay has been described in detail previously [Claes et al. JoVE 2018, 132, 1-9]. U87.CD4.CXCR4 cells (2×10^4 cells per well in DMEM/10% FBS/0.01M HEPES) were seeded in gelatin-coated (Sigma-Aldrich; 0.1% gelatin in DPBS) black-walled 96-well plates and incubated overnight at 37° ° C. and 5% CO2. The next day, cells were loaded with the fluorescent calcium indicator Fluo-2 acetoxymethyl (AM) ester (4 μM; Abcam) and incubated at room temperature in the dark for 45 minutes. Then, cells were incubated with various concentrations of the compounds for 10 minutes prior to addition of 6.25 nM CXCL12 (in assay buffer). Fluctuations in intracellular calcium levels were measured in real time by the FLIPR Tetra® (Molecular Devices, Sunnyvale, CA, USA) in all 96 wells simultaneously. The response over baseline (after CXCL12 addition) was calculated with the ScreenWorks 4.0® software (Molecular Devices) by dividing the obtained relative light units (RLUs) through the base line measured just before CXCL12 addition. From this the IC50 value for each compound was determined taking into account the negative (i.e. untreated cells without CXCL12 stimulation) and positive (i.e. untreated cells with CXCL12 addition) control samples.

MT-4 cells = experiment: Cytotoxicity for mock-infected (uninfected) MT-4 cells; type: cell-based
Experimental: as §2

HIV-1 NL4-3 = experiment: Anti-HIV assay in MT-4 cells, HIV-1 NL4-3; type: cell-based; conditions: Human immunodeficiency virus 1, NL43, MT4; Concentration required to achieve 50% protection of MT-4 cells against HIV-induced cytopathicity
Experimental: as §2

HIV-2 ROD = experiment: Anti-HIV assay in MT-4 cells, HIV-2 ROD; type: cell-based; conditions: Human immunodeficiency virus 2, MT4; Concentration required to achieve 50% protection of MT-4 cells against HIV-induced cytopathicity
Experimental: as §2

[4] = Concentration needed to inhibit CXCL12 receptor binding by 50%, Jurkat cells, mean of at least two independent experiments, read-out: CXCR4 Binding IC50

T1 sequence (P61073 whole entry): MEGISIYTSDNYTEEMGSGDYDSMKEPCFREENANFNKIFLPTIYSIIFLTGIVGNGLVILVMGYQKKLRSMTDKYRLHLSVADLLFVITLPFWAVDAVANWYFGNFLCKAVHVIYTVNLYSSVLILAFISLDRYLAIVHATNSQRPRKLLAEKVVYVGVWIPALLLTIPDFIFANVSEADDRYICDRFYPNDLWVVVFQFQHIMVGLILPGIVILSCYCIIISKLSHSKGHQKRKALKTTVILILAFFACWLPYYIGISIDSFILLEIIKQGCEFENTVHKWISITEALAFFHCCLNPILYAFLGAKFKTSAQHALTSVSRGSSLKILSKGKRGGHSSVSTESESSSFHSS

SMILES	IC50 (CXCR4 [1]; [4]) [nM]	IC50 (CXCR4 [3]) [nM]	IC50 (CXCR4 [1]; span over all assays (binding, calcium, HIV-1, HIV-2), read-out: IC50 values in all assays) [nM]	EC50 (HIV-1 NL4-3) [nM]	EC50 (HIV-2 ROD) [nM]	CC50 at 5 days [2] [nM]	cytotoxicity for the MT4 cell line (MT-4 cells)	CC50 (MT-4 cells; Concentration required to reduce the viability of mock-infected MT4 cells by 50%) [nM]
COc1cc2ccnc(CN(CCCCN)C3CCCc4cccnc43)c2cc1OC (stereo not shown) [Compound 19a, N1-((6,7-Dimethoxyisoquinolin-1-yl)methyl)-N1-(5,6,7,8-tetrahydroquinolin-8-yl) butane-1,4-diamine]	7.2	25				> 100000		
COc1ccc2c(CN(CCCCN)C3CCCc4cccnc43)nccc2c1 (stereo not shown) [Compound 19b, N1-((6-Methoxyisoquinolin-1-yl)methyl)-N1-(5,6,7,8-tetrahydroquinolin-8-yl)butane-1,4-diamine]	0.25	28				11100		
NCCCCN(Cc1nccc2cc(F)ccc12)C1CCCc2cccnc21 (stereo not shown) [Compound 19c, N1-((6-Fluoroisoquinolin-1-yl)methyl)-N1-(5,6,7,8-tetrahydroquinolin-8-yl)butane-1,4-diamine]	8.9	33				18100		
NCCCCN(Cc1nccc2cc(Br)ccc12)C1CCCc2cccnc21 (stereo not shown) [Compound 19d, N1-((6-Bromoisoquinolin-1-yl)methyl)-N1-(5,6,7,8-tetrahydroquinolin-8-yl)butane-1,4-diamine]	26	440				43600		
NCCCCN(Cc1nccc2ccccc12)C1CCCc2cccnc21 (stereo not shown) [Compound 19e, N1-(Isoquinolin-1-ylmethyl)-N1-(5,6,7,8-tetrahydroquinolin-8-yl)butane-1,4-diamine]	9.2	130				26700	lack cytotoxicity	
NCCCCN(Cc1ccccn1)C1CCCc2cccnc21 (stereo not shown) [Compound 20, N1-(Pyridin-2-ylmethyl)-N1-(5,6,7,8-tetrahydroquinolin-8-yl)butane-1,4-diamine]						55400	lack cytotoxicity	
Cc1cccnc1CN(CCCCN)Cc1ccccn1 [Compound 25, N1-((3-Methylpyridin-2-yl)methyl)-N1-(pyridin-2-ylmethyl)butane-1,4-diamine]		180				79800		
c1cc(CN2CCCNCCNCCCNCC2)ccc1CN1CCCNCCNCCCNCC1 [Plerixafor, reference compound]						6290		

Further lines, with some results ahead:

IC50 (CXCR4 [1]; [4]) [nM]	IC50 (CXCR4 [3]) [nM]	IC50 (CXCR4 [1]; span over all assays (binding, calcium, HIV-1, HIV-2), read-out: IC50 values in all assays) [nM]	EC50 (HIV-1 NL4-3) [nM]	EC50 (HIV-2 ROD) [nM]	SMILES	CC50 at 5 days [2] [nM]	cytotoxicity for the MT4 cell line (MT-4 cells)	CC50 (MT-4 cells; Concentration required to reduce the viability of mock-infected MT4 cells by 50%) [nM]
3.2	13				COc1cc2ccnc(CN(CCCCN)Cc3ncccc3C)c2cc1OC [Compound 24a, N1-((6,7-dimethoxyisoquinolin-1-yl)methyl)-N1-((3-methylpyridin-2-yl)methyl) butane-1,4-diamine]	> 100000	lack cytotoxicity	
890	3850				COc1ccc2c(CN(CCCCN)Cc3ncccc3C)nccc2c1 [Compound 24b, N1-((6-Methoxyisoquinolin-1-yl)methyl)-N1-((3-methylpyridin-2-yl)methyl) butane-1,4-diamine]	9270		
0.64	6.1	0.6 to 6			Cc1cccnc1CN(CCCCN)Cc1nccc2cc(F)ccc12 [Compound 24c, N1-((6-Fluoroisoquinolin-1-yl)methyl)-N1-((3-methylpyridin-2-yl)methyl) butane-1,4-diamine]	31000	lack cytotoxicity	30800
39	690				Cc1cccnc1CN(CCCCN)Cc1nccc2cc(Br)ccc12 [Compound 24d, N1-((6-Bromoisoquinolin-1-yl)methyl)-N1-((3-methylpyridin-2-yl)methyl) butane-1,4-diamine]	29500		
> 100000	> 50000		> 41600	> 41600	NCCCCN(Cc1ccccc1)c1cccc2cccnc12 [Compound 31a, N^1-benzyl-N^1-(quinolin-8-yl)butane-1,4-diamine]	41600		
36	5500		380	> 9460	NCCCCN(Cc1ccccn1)c1cccc2cccnc12 [Compound 31b, N^1-(pyridin-2-ylmethyl)-N^1-(quinolin-8-yl)butane-1,4-diamine]	9460		
2.3	5		18	1.3	NCCCCN(Cc1nccc2ccccc12)c1cccc2cccnc12 [Compound 31c, N^1-(isoquinolin-1-ylmethyl)-N^1-(quinolin-8-yl)butane-1,4-diamine]	2980		
